Results published in the NIST ThermoML archive (doi:10.1021/je050443o).

Assay: wn = mass fraction of the nth substance listed
Settings: 101.33 kPa, Liquid

O=S(=O)(O)O [sulfuric acid] + O
Settings	mass density, w1 = 0.1 [kg/m3]	mass density, w1 = 0.2 [kg/m3]	mass density, w1 = 0.3 [kg/m3]	viscosity, w1 = 0.1 [mPa·s]	viscosity, w1 = 0.2 [mPa·s]	viscosity, w1 = 0.3 [mPa·s]
293.15 K	1066.2	1139.5	1218.3	1.231	1.55	2.009
303.15 K	1061.9	1133.3	1211.7	0.9804	1.229	1.601
313.15 K	1056.8	1126.9	1204.3	0.7896	0.9887	1.306
323.15 K	1051.8	1121.1	1198	0.661	0.8311	1.1
333.15 K	1046.3	1115.3	1190.7	0.5598	0.7105	0.9426
343.15 K	1039.6	1108.8	1184.2	0.4902	0.6409	0.8467
